# Test results from patent publication US8815306B2, “Methods and compositions for promoting bone and joint health” (Metaproteomics, LLC, priority 2007, dated 2014).
# Where a name gives a salt, the structure may show the parent alone.
# How the values were obtained:
# [1] = system: TNFα induced MMP-13 expression; test: TNFα induced MMP-13 expression in human chondrocyte cell line SW1353; settings: for TNFa Stimulated % Activity average (MMP-13 expression): Table 6, TNF pos = 100%
# Method: The SW1353 human chondrocyte cell line was used as described below.
# Cells were grown and subcultured in 96-well plates at a density of 8×10^4 cells per well and allowed to reach ˜80% confluence overnight. Test compounds in medium were added to the cells at a final concentration of 0.1% DMSO. Following one hour of incubation with the test compounds, TNFα (10 ng/ml) or medium alone was added to the cell wells and incubation continued for 24 hours. The supernatant media was subsequently collected for MMP-13 determination.
# Determination of MMP-13: A commercial, non-radioactive procedure for quantification of MMP-13 was used according to the manufacturer's instructions using MMP-13 as a standard. A minimum of 3 wells were used for each test condition.
# The amount of MMP-13 release into the medium was determined by comparison of the MMP-13 generated in the presence or absence of TNFα and test compounds. A minimum of three wells were used for each test condition. The basal MMP-without 13 levels without TNFα stimulation was subtracted from TNF stimulation to determine the TNFα induced MMP-13 expression in the medium and the levels normalized to 100%. The percent activity of test compounds was measured in the presence of TNFα and referred as TNFα induced MMP-13 expression.
# [2] = system: TNFα induced MMP-13 expression; test: Synergy (Combinational Index) of THIAA and berberine on TNFα induced MMP-13 expression in SW1353; format: cell-based; settings: Homo sapiens
# Method: The SW1353 human chondrocyte cell line was used as described in Example 1.
# The human chondrocyte cell line, SW1353 were maintained and treatments conditions were described in Example 1. […]; 1:10; 5:1; 2:1; 1:1; 1:2; 1:5; 1:10; […].
# Determination of MMP-13 expression—The MMP-13 levels in the medium was measured as described in Example 1.
# Median effect calculations were performed using CalcuSyn (Biosoft, Ferguson, Mo.). […] A minimum of three concentrations were used to determine the dose-response curve and a median inhibitory concentration (IC50).
# Synergy—Combinational Index (CI) values were measured using CalcuSyn (Biosoft, Ferguson, Mo.). […]
structure (smiles),measurement,setting,value
COc1ccc2cc3[n+](cc2c1OC)CCc1cc2c(cc1-3)OCO2 [Berberine sulfate],Dose dependence of modulation of TNFα induced MMP-13 expression,"[1]; Example 3, SW1353",dose dependently modulated
same,IC50,"[1]; Homo sapiens, SW1353, read-out: IC50 (TNFa induced MMP-13 expression)",0.15 µg/mL
same,TNFa Stimulated % Activity average (MMP-13 expression),"[1]; 0.05 ug/mL, SW1353",99%
same,TNFa Stimulated % Activity average (MMP-13 expression),"[1]; 0.1 ug/mL, SW1353",50%
same,TNFa Stimulated % Activity average (MMP-13 expression),"[1]; 0.5 ug/mL, SW1353",4%
same,TNFa Stimulated % Activity average (MMP-13 expression),"[1]; 1 ug/mL, SW1353",−1%
same,IC50,"[2]; Table 7B, single agents, read-out: Dm (median effect dose, TNFα induced MMP-13 expression)",0.254 µg/mL
same,IC50,"[2]; text b137, single agents, read-out: IC50 (TNFα induced MMP-13 expression)",0.254 µg/mL
